The values below are quoted from earlier work in patent publication EP0303681B1 (priority 1987, dated 1988).

Turning to `Sc1ncnc2nc[nH]c12` [6 MP, 6-mercaptopurine], the “solubility in alkaline solutions” value (alkaline solutions) is “soluble”. Besides, under “hot ethanol”, the “solubility in hot ethanol” value was “soluble”. The solubility in water entry (water) is given as “insoluble”.
